Test results: patent US20080269114A1, “Y4 Selective Receptor Agonists For Thereapeutic Interventions” (priority 2004, published 2008)

Experiments:
food intake = assay: Effect of Y4 selective agonists on acute food intake in mice; assay type: in vivo, mice (ddy strain)
Experimental: . In FIG. 2 is shown the accumulated food intake of the mice during 8 hours. […] The 50% suppressive effect on food intake was observed also when this was measured during the first full hour.
Effect of Y4 Selective Agonists on Acute Food Intake in Mice
The ddy strain of mice were used, 34-37 g and 8-9 weeks of age (Japan SLC, Shizuuoka, Japan). The mice were individually house in a regulated environment (22 C, 55% humidity) in a 12-hour light-dark cycle with light on at 7 AM. Food and water were available ad libitum except just before experiments (see below). The mice were acclimatized to subcutaneous injections during the week before experiments started. Mice were used once each in the experiments. Just before administration the peptides were diluted in physiological saline and administered in 100 μL volume for subcutaneous administration. Results are expressed as mean±SE. Analysis of variance followed by Bonferroni's test were used to assess differences among groups.
Mice were deprived of food but with free access to water for 16 hours prior to the actual test and experiments were started at 10 AM on the following day. A standard diet was used (CLEA Japan, Inc., Tokyo, Japan) and food intake was measured by subtracting uneaten food from the initially premeausured food after administration and checking for food spillage.

human Y1 receptor = molecular target: T1, human Y1 receptor (Homo sapiens, UniProt P25929); assay: Human Y1 receptor potency assay (inositol phosphate turnover, COS-7 cells); assay type: cell-based; details: relative to PP
T1 construct: expressed in transfected cells; host or cells: COS-7
T1 sequence (P25929 1-384): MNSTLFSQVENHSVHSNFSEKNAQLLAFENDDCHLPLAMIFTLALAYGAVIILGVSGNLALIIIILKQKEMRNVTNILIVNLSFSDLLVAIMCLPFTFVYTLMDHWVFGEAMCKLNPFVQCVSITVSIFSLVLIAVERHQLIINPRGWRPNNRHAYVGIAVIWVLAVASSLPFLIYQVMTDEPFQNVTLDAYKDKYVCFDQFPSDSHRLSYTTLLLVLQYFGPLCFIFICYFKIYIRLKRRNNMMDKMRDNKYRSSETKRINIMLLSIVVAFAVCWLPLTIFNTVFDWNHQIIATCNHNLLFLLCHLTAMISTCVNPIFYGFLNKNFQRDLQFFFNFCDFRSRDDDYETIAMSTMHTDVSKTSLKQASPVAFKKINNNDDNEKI
Experimental: Potency of the test compounds on the human Y2 receptor is determined by performing dose-response experiments in COS-7 cells transiently transfected with the human Y2 receptor as well as a promiscuous G protein, Gqi5 which ensures that the Y2 receptor couples through a Gq pathway leading to an increase in inositol phosphate turnover.
(§1) Cells are washed twice in buffer, 20 mM HEPES, pH 7.4, supplemented with 140 mM NaCl, 5 mM KCl, 1 mM MgSO4, 1 mM CaCl2, 10 mM glucose, 0.05% (w/v) bovine serum; and are incubated in 0.5 ml buffer supplemented with 10 mM LiCl at 37 C for 30 min. After stimulation with various concentrations of peptide for 45 min at 37 C, cells are extracted with 10% ice-cold perchloric acid followed by incubation on ice for 30 min. The resulting supernatants are neutralized with KOH in HEPES buffer, and the generated [3H]-inositol phosphate are purified on Bio-Rad AG 1-X8 anion-exchange resin and counted in a beta counter. Determinations are made in duplicates. EC50 values were calculated using a standard pharmacological data handling software, Prism 3.0 (graphPad Sofware, San Diego, USA).
Protocol as for the Y2 potency assay, except that human Y1-transformed COS-7 cells are used.

human Y4 receptor = molecular target: T2, human Y4 receptor (Homo sapiens, UniProt P50391); assay: Human Y4 receptor potency assay (inositol phosphate turnover, COS-7 cells); assay type: cell-based; details: relative to PP
T2 construct: expressed in transfected cells; host or cells: COS-7
T2 sequence (P50391 whole entry): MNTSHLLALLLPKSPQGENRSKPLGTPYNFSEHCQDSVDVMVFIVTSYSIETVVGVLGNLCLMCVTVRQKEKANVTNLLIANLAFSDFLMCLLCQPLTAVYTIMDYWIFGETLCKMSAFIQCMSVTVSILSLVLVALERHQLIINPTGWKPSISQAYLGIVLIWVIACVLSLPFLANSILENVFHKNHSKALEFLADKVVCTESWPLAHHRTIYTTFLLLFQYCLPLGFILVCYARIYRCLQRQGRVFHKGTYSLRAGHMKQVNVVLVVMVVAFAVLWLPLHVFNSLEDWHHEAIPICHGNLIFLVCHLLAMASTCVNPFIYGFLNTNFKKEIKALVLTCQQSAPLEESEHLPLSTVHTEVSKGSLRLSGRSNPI
Experimental: as §1, with “After” for “Cells are washed twice in buffer, 20 mM HEPES, pH 7.4, supplemented with 140 mM NaCl, 5 mM KCl, 1 mM MgSO4, 1 mM CaCl2, 10 mM glucose, 0.05% (w/v) bovine serum; and are incubated in 0.5 ml buffer supplemented with 10 mM LiCl at 37 C for 30 min. After”

## CC[C@H](C)[C@H](NC(=O)[C@H](Cc1ccc(O)cc1)NC(=O)[C@H](CCCNC(=N)N)NC(=O)[C@H](CCCNC(=N)N)NC(=O)[C@H](CC(C)C)NC(=O)[C@H](CC(=O)O)NC(=O)[C@H](C)NC(=O)[C@H](C)NC(=O)[C@H](Cc1ccc(O)cc1)NC(=O)[C@H](CCC(N)=O)NC(=O)[C@H](C)NC(=O)[C@H](CCSC)NC(=O)[C@H](CCC(N)=O)NC(=O)[C@H](CCC(=O)O)NC(=O)[C@@H]1CCCN1C(=O)[C@@H](NC(=O)[C@H](C)NC(=O)[C@H](CC(N)=O)NC(=O)[C@H](CC(=O)O)NC(=O)CNC(=O)[C@@H]1CCCN1C(=O)[C@H](Cc1ccc(O)cc1)NC(=O)[C@@H](NC(=O)[C@@H]1CCCN1C(=O)[C@H](CCC(=O)O)NC(=O)[C@H](CC(C)C)NC(=O)[C@@H]1CCCN1)C(C)C)[C@@H](C)O)C(=O)N[C@@H](CC(N)=O)C(=O)N[C@@H](CCSC)C(=O)N[C@@H](CC(C)C)C(=O)N[C@H](C(=O)N[C@@H](CCCNC(=N)N)C(=O)N1CCC[C@H]1C(=O)N[C@@H](CCCNC(=N)N)C(=O)N[C@@H](Cc1ccc(O)cc1)C(N)=O)[C@@H](C)O [PP2-36]
Food intake; after the single subcutaneous injection
  period for which the suppressive effect on food intake was sustained: 8 h
Food intake; first full hour, single subcutaneous injection, 16 hours fasted mice
  suppressive effect on food intake: 50%
Human Y1 receptor
  potency on the Y1 receptor lower than that of PP: 3-4 fold

## CC[C@H](C)[C@H](NC(=O)[C@H]1CSSC[C@H](NC(=O)[C@H](C)N)C(=O)N[C@@H](CC(C)C)C(=O)N[C@@H](CCC(=O)O)C(=O)N2CCC[C@H]2C(=O)N[C@@H](C(C)C)C(=O)N[C@@H](Cc2ccc(O)cc2)C(=O)N2CCC[C@H]2C(=O)NCC(=O)N[C@@H](CC(=O)O)C(=O)N[C@@H](CC(N)=O)C(=O)N[C@@H](C)C(=O)N[C@@H]([C@@H](C)O)C(=O)N2CCC[C@H]2C(=O)N[C@@H](CCC(=O)O)C(=O)N[C@@H](CCC(N)=O)C(=O)N[C@@H](CCSC)C(=O)N[C@@H](C)C(=O)N[C@@H](CCC(N)=O)C(=O)N[C@@H](Cc2ccc(O)cc2)C(=O)N[C@@H](C)C(=O)N[C@@H](C)C(=O)N[C@@H](CC(=O)O)C(=O)N[C@@H](CC(C)C)C(=O)N[C@@H](CCCNC(=N)N)C(=O)N[C@@H](CCCNC(=N)N)C(=O)N1)C(=O)N[C@@H](CC(N)=O)C(=O)N[C@@H](CCSC)C(=O)N[C@@H](CC(C)C)C(=O)N[C@H](C(=O)N[C@@H](CCCNC(=N)N)C(=O)N1CCC[C@H]1C(=O)N[C@@H](CCCNC(=N)N)C(=O)N[C@@H](Cc1ccc(O)cc1)C(N)=O)[C@@H](C)O [[Cys2,D-Cys27]PP]
Human Y4 receptor
  potency on the Y4 receptor lower than that of PP: 7 fold
